Paper PMC6155273, “Antiprotozoal Activity of Triazole Derivatives of Dehydroabietic Acid and Oleanolic Acid” (Molecules : A Journal of Synthetic Chemistry and Natural …, 2017)
pIC50: −log10 of the molar value.

Tested on: L. braziliensis promastigotes
Experiment: Leishmanicidal activity on L. braziliensis promastigotes (resazurin)
Format: cell-based, Leishmania braziliensis
Conditions: Leishmania braziliensis, 48 h, read-out: Leishmanicidal Activity on Promastigotes, L. braziliensis, IC50
Method: (§1) Culture of L. braziliensis (MHOM/BR/75/M2904), and L. infantum (MHOM/FR/91/LEM2259V) was obtained from the Facultad de Farmacia (Universidad Complutense de, Madrid, Spain). The maintenance of the strains, the form of cultivation, and the isolation of shape promastigota were performed following the procedures described by Roldos et al.. The promastigotes were grown at 22 °C in Schneider’s Drosophila medium supplemented with 20% FBS. The assay was performed using a modification of a previous method. Promastigotes (2 × 10^6 parasites/well) were cultured in 96-well plastic plates. Compounds were dissolved in dimethylsulfoxide (DMSO). Different dilutions of the compounds with a final volume up to 200 µL were added. After 48 h at 26 °C, 20 µL of a 2 mM resazurin solution was added, and the oxidation-reduction was quantified at 570 and 600 nm. The solution of resazurin was prepared at 2.5 mM in phosphate buffered solution (PBS), pH 7.4, and filtered through 0.22 µm prior to use. All tests were carried out in triplicate. Resazurin sodium salt was obtained from Sigma-Aldrich (St. Louis, MO, USA) and stored at 4 °C protected from light. The efficacy of each compound was estimated by calculating the IC50 values.
`CC(C)c1ccc2c(c1)CCC1[C@](C)(C(=O)OCCc3cn(-c4ccccc4)nn3)CCC[C@]21C` (stereo partly shown) [Compound 2] gave an IC50 of over 256 µg/mL. Work on `COc1ccc(-n2cc(CCC(=O)OC[C@]3(C)CCC[C@]4(C)c5ccc(C(C)C)cc5CCC34)nn2)cc1` (stereo partly shown) [Compound 11] yielded an IC50 of over 256 µg/mL. In the case of `CC(C)c1ccc2c(c1)CCC1[C@](C)(COC(=O)CCc3cn(CSc4ccccc4)nn3)CCC[C@]21C` (stereo partly shown) [Compound 9], the IC50 was over 256 µg/mL. Compound `CC(C)c1ccc2c(c1)CCC1[C@](C)(COC(=O)CCc3cn(Cc4ccccc4)nn3)CCC[C@]21C` (stereo partly shown) [Compound 7] has an IC50 of over 256 µg/mL. `COC(=O)[C@]12CCC(C)(C)C[C@H]1C1=CCC3[C@@]4(C)CC[C@H](OC(=O)CCc5cn(-c6ccc(OC)cc6)nn5)C(C)(C)C4CC[C@@]3(C)[C@]1(C)CC2` (stereo partly shown) [Compound 24] showed an IC50 of over 256 µg/mL. In the case of `CC1(C)CC[C@]2(C(=O)O)CC[C@]3(C)C(=CC[C@@H]4[C@@]5(C)CC[C@H](O)C(C)(C)[C@@H]5CC[C@]43C)[C@@H]2C1` [OA, Oleanolic acid], the IC50 was over 256 µg/mL. With `COC(=O)[C@]12CCC(C)(C)C[C@H]1C1=CCC3[C@@]4(C)CC[C@H](OC(=O)CCc5cn(-c6ccccc6)nn5)C(C)(C)C4CC[C@@]3(C)[C@]1(C)CC2` (stereo partly shown) [Compound 22] the IC50 was over 256 µg/mL.

Tested on: L. infantum promastigotes
Experiment: Leishmanicidal activity on L. infantum promastigotes (resazurin)
Format: cell-based, Leishmania infantum
Conditions: Leishmania infantum, 48 h, read-out: Leishmanicidal Activity on Promastigotes, L. infantum, IC50
Method: as §1
Compound `CC(C)c1ccc2c(c1)CCC1[C@](C)(C(=O)OCCc3cn(-c4ccccc4)nn3)CCC[C@]21C` (stereo partly shown) [Compound 2] has an IC50 of over 256 µg/mL. With `COc1ccc(-n2cc(CCC(=O)OC[C@]3(C)CCC[C@]4(C)c5ccc(C(C)C)cc5CCC34)nn2)cc1` (stereo partly shown) [Compound 11] the IC50 was over 256 µg/mL. Compound `CC(C)c1ccc2c(c1)CCC1[C@](C)(COC(=O)CCc3cn(CSc4ccccc4)nn3)CCC[C@]21C` (stereo partly shown) [Compound 9] has an IC50 of over 256 µg/mL. `CC(C)c1ccc2c(c1)CCC1[C@](C)(COC(=O)CCc3cn(Cc4ccccc4)nn3)CCC[C@]21C` (stereo partly shown) [Compound 7] gave an IC50 of over 256 µg/mL. In the case of `COC(=O)[C@]12CCC(C)(C)C[C@H]1C1=CCC3[C@@]4(C)CC[C@H](OC(=O)CCc5cn(-c6ccc(OC)cc6)nn5)C(C)(C)C4CC[C@@]3(C)[C@]1(C)CC2` (stereo partly shown) [Compound 24], the IC50 was over 256 µg/mL. In the case of `CC1(C)CC[C@]2(C(=O)O)CC[C@]3(C)C(=CC[C@@H]4[C@@]5(C)CC[C@H](O)C(C)(C)[C@@H]5CC[C@]43C)[C@@H]2C1` [OA, Oleanolic acid], the IC50 was over 256 µg/mL. `COC(=O)[C@]12CCC(C)(C)C[C@H]1C1=CCC3[C@@]4(C)CC[C@H](OC(=O)CCc5cn(-c6ccccc6)nn5)C(C)(C)C4CC[C@@]3(C)[C@]1(C)CC2` (stereo partly shown) [Compound 22] gave an IC50 of over 256 µg/mL.

Tested on: T. cruzi epimastigotes
Experiment: Antiepimastigote activity, T. cruzi CL-B5 lacZ (CPRG)
Format: cell-based, Trypanosoma cruzi
Conditions: Trypanosoma cruzi, clone CL-B5, 72 h
Method: For in vitro studies of T. cruzi, the clone CL-B5 was used (donated by Faculty of Pharmacy, Complutense University, Madrid, Spain). Parasites were stably transfected with the Escherichia coli β-galactosidase gene (lacZ). Epimastigotes were grown at 28 °C in liver infusion tryptose broth (Difco, Detroit, MI, USA) with 10% fetal bovine serum (FBS) (Gibco, Carlsbad, CA, USA), penicillin (Ern S.A., Barcelona, Spain), and streptomycin (Reig Jofré S.A., Barcelona, Spain), as described previously, and harvested during the exponential growth phase. Briefly, the screening assay was performed in 96-well microplates (Sarstedt, Inc., Newton, NC, USA) with cultures that had not reached the stationary phase. Epimastigotes were seeded at 2 × 10^5 parasites/mL in 200 µL growth media. The plates were then incubated with the respective compounds at 28 °C for 72 h; afterwards, 50 µL of chlorophenol red-β-D-galactopyranoside (CPRG) solution was added, resulting in a final concentration of 200 µM. The plates were incubated at 37 °C for an additional 4 h and then read at 595 nm. Each concentration was tested in triplicate. The efficacy of each compound was estimated by calculating the IC50 values. These values were calculated by the sigmoidal dose–response curve adjustment using the statistical software program Graph-Pad Prims 3.0 (GraphPhad, San Diego, CA, USA). Benznidazole was used as the reference drug.
With `CC(C)c1ccc2c(c1)CCC1[C@](C)(C(=O)OCCc3cn(-c4ccccc4)nn3)CCC[C@]21C` (stereo partly shown) [Compound 2] the IC50 was over 256 µg/mL. Compound `COc1ccc(-n2cc(CCC(=O)OC[C@]3(C)CCC[C@]4(C)c5ccc(C(C)C)cc5CCC34)nn2)cc1` (stereo partly shown) [Compound 11] has an IC50 of over 256 µg/mL. `CC(C)c1ccc2c(c1)CCC1[C@](C)(COC(=O)CCc3cn(CSc4ccccc4)nn3)CCC[C@]21C` (stereo partly shown) [Compound 9] showed an IC50 of over 256 µg/mL. With `CC(C)c1ccc2c(c1)CCC1[C@](C)(COC(=O)CCc3cn(Cc4ccccc4)nn3)CCC[C@]21C` (stereo partly shown) [Compound 7] the IC50 was over 256 µg/mL. For `COC(=O)[C@]12CCC(C)(C)C[C@H]1C1=CCC3[C@@]4(C)CC[C@H](OC(=O)CCc5cn(-c6ccc(OC)cc6)nn5)C(C)(C)C4CC[C@@]3(C)[C@]1(C)CC2` (stereo partly shown) [Compound 24], the IC50 was over 256 µg/mL. With `CC1(C)CC[C@]2(C(=O)O)CC[C@]3(C)C(=CC[C@@H]4[C@@]5(C)CC[C@H](O)C(C)(C)[C@@H]5CC[C@]43C)[C@@H]2C1` [OA, Oleanolic acid] the IC50 was over 256 µg/mL. `COC(=O)[C@]12CCC(C)(C)C[C@H]1C1=CCC3[C@@]4(C)CC[C@H](OC(=O)CCc5cn(-c6ccccc6)nn5)C(C)(C)C4CC[C@@]3(C)[C@]1(C)CC2` (stereo partly shown) [Compound 22] showed an IC50 of over 256 µg/mL.

Tested on: not listed separately
Experiment: Cytotoxicity on NCTC-Clone 929 fibroblasts (resazurin)
Format: cell-based
Conditions: mouse
Method: The cell line used was NCTC-Clone 929, which was grown in Minimal Essential Medium (Sigma) supplemented with 10% heat-inactivated FBS, penicillin G (100 U/mL), and streptomycin (100 µg/mL). Cell cultures were maintained at 37 °C in a humidified 5% CO2 atmosphere. The procedure for cell viability measurement was evaluated with resazurin by a colorimetric method. The cells were plated in 96-microtiter plates at 3 × 10^4 cells per well in a 100 µL growth medium. The cells were grown overnight at 37 °C, 5% CO2. Thereafter, the medium was removed and the compounds were added in a 200 µL medium for 24 h. After incubation, 20 µL of a 2 mM resazurin solution was added to each well. The plates were incubated for 3 h to allow optimal oxidation-reduction. The reduction of resazurin was determined by dual wavelength absorbance measurement at 490 and 595 nm. Background was subtracted. Each concentration was assayed three times. Medium and drug controls were used in each test as blanks.
For `CC(C)c1ccc2c(c1)CCC1[C@](C)(C(=O)OCCc3cn(-c4ccccc4)nn3)CCC[C@]21C` (stereo partly shown) [Compound 2], the IC50 at 24 h was over 256 µg/mL. With `COc1ccc(-n2cc(CCC(=O)OC[C@]3(C)CCC[C@]4(C)c5ccc(C(C)C)cc5CCC34)nn2)cc1` (stereo partly shown) [Compound 11] the IC50 at 24 h was over 256 µg/mL. Work on `CC(C)c1ccc2c(c1)CCC1[C@](C)(COC(=O)CCc3cn(CSc4ccccc4)nn3)CCC[C@]21C` (stereo partly shown) [Compound 9] yielded an IC50 at 24 h of over 256 µg/mL. `CC(C)c1ccc2c(c1)CCC1[C@](C)(COC(=O)CCc3cn(Cc4ccccc4)nn3)CCC[C@]21C` (stereo partly shown) [Compound 7] showed an IC50 at 24 h of over 256 µg/mL. With `COC(=O)[C@]12CCC(C)(C)C[C@H]1C1=CCC3[C@@]4(C)CC[C@H](OC(=O)CCc5cn(-c6ccc(OC)cc6)nn5)C(C)(C)C4CC[C@@]3(C)[C@]1(C)CC2` (stereo partly shown) [Compound 24] the IC50 at 24 h was over 256 µg/mL. `COC(=O)[C@]12CCC(C)(C)C[C@H]1C1=CCC3[C@@]4(C)CC[C@H](OC(=O)CCc5cn(-c6ccccc6)nn5)C(C)(C)C4CC[C@@]3(C)[C@]1(C)CC2` (stereo partly shown) [Compound 22] showed an IC50 at 24 h of over 256 µg/mL.

Tested on: L. amazonensis promastigote
Experiment: not given
Design: method as in PMID 15070160
Conditions: cited from earlier work
In the case of `CC1(C)CC[C@]2(C(=O)O)CC[C@]3(C)C(=CC[C@@H]4[C@@]5(C)CC[C@H](O)C(C)(C)[C@@H]5CC[C@]43C)[C@@H]2C1` [OA, Oleanolic acid], the “IC50 against promastigote stage of L. amazonensis” value is listed as 10 µg/mL.

Tested on: L. amazonensis amastigote
Experiment: not given
Design: method as in PMID 15070160
Conditions: cited from earlier work
In the case of `CC1(C)CC[C@]2(C(=O)O)CC[C@]3(C)C(=CC[C@@H]4[C@@]5(C)CC[C@H](O)C(C)(C)[C@@H]5CC[C@]43C)[C@@H]2C1` [OA, Oleanolic acid], the “IC50 against amastigote stage of L. amazonensis” value is given as 11 µg/mL.

Tested on: L. braziliensis, L. amazonensis, and L. infantum promastigotes
Experiment: not given
Design: method as in PMID 26772973
Conditions: read-out: IC50 against promastigotes of three Leishmania species; cited from earlier work
For `CC1(C)CC[C@]2(C(=O)O)CC[C@]3(C)C(=CC[C@@H]4[C@@]5(C)CC[C@H](O)C(C)(C)[C@@H]5CC[C@]43C)[C@@H]2C1` [OA, Oleanolic acid], the pIC50 is given as 4.18 to 4.52.

Tested on: L. braziliensis, L. amazonensis, and L. infantum amastigote
Experiment: not given
Design: method as in PMID 26772973
Conditions: read-out: IC50 against amastigote of three Leishmania species; cited from earlier work
For `CC1(C)CC[C@]2(C(=O)O)CC[C@]3(C)C(=CC[C@@H]4[C@@]5(C)CC[C@H](O)C(C)(C)[C@@H]5CC[C@]43C)[C@@H]2C1` [OA, Oleanolic acid], the pIC50 is given as 4.16 to 4.42.
